Several values for one entry are separate records, joined by “and”; a condition that tells them apart may be missing. Equal values may be shown once. Read-outs that look alike come from different tables or passages of the source.
Experiments:
[1] = Pharmacokinetics: plasma, brain, CSF
mice [2] = experiment: Hot plate, 52 °C; format: in vivo, mouse
mice [3] = experiment: Hargreaves radiant heat test; format: in vivo, mouse
mice [4] = experiment: Rotarod test; format: in vivo, mouse
mice [5] = experiment: Conditioned place preference; format: in vivo, mouse; settings: for Individual animal scores (FigS11e): test not printed on the sheet; for conditioned place preference: drug-paired vs vehicle-paired chamber
Experimental: Briefly, mice were first habituated to the test apparatus, twice, and their preference for each chamber recorded for 30 min (Pretest). Two conditioning days followed in which mice received the vehicle control or the compound, and 30 min later restricted for 30 min in the preferred or non-preferred chamber, respectively. On day 5 (Test day), mice were allowed to roam freely between the 3 chambers of the apparatus and their preference for each chamber recorded for 30 min. To calculate the CPP score, we subtracted the time spent in each chamber of the box on the Pretest day from that of the Test day (CPP score = Test - Pretest).

mice [6] = experiment: Acetone test, cold allodynia after spared nerve injury; format: in vivo, mouse
Experimental: Mice were placed on a wire mesh and thirty min after an i.p. injection of the compounds we applied a drop (50 μL) of acetone on the ventral aspect of the hindpaw, 5 times every 30 sec. We recorded the number of nocifensive behaviors (paw lifts/licks/shakes/bites) over the 5 applications.

mice [7] = experiment: Catalepsy test, vertical wire mesh; format: in vivo, mouse
Experimental: Thirty min after an i.p. injection of the compounds, mice were placed on a vertical wire mesh and the latency to move all four paws was recorded.

mice [8] = tested on: mice
Experimental: For all behavioral tests, the experimenter was always blind to treatment. Animals were first habituated for 30-60 min in Plexiglas cylinders and then tested 30 min after i.p. or i.t. injection of the compounds. The thermal (Hargreaves, hotplate and tail flick) and ambulatory (rotarod) tests were conducted as described[96]. Briefly, hindpaw thermal sensitivity was measured with a radiant heat source (Hargreaves) or on a hotplate at 52 °C. For the tail flick assay, sensitivity was measured by immersing the tail into a 50 °C water bath. For the ambulatory (rotarod) test, before testing with any compound, mice underwent three trainings on three consecutive days until they reach 300 sec. Each training has three sessions of five min each. Therapeutic window was calculated as the ratio of the minimum dose of side effect phenotype to the minimum dose of analgesic phenotype.

in vitro = settings: mouse, plasma
Experimental: The reactions were stopped by adding 240 μL 90% acetonitrile containing internal standard with subsequent plasma proteins sedimentation by centrifuging at 5796 g for 5 min. Supernatants were analyzed by the HPLC system coupled with a tandem mass spectrometer. The percentage of the test compounds remaining after incubation in plasma and their half-lives (T1/2) were calculated.

mice [9] = experiment: Tail flick, 50 °C water bath; format: in vivo, mouse; settings: for analgesic response normalised to baseline, WT vs CB1R KO (Figure5d), individual animals: 10 mg/kg
[10] = molecular target: T1, human PTH receptor (PTHR) (Homo sapiens, UniProt Q03431); experiment: Gs bioSens-All control assay; format: cell-based; settings: raw signal, log[PTH]
T1 construct: expressed in transfected cells; host or cells: HEK293 (HEK293SL) cells, transient co-transfection with the Gαs biosensor
T1 sequence (Q03431 27-593): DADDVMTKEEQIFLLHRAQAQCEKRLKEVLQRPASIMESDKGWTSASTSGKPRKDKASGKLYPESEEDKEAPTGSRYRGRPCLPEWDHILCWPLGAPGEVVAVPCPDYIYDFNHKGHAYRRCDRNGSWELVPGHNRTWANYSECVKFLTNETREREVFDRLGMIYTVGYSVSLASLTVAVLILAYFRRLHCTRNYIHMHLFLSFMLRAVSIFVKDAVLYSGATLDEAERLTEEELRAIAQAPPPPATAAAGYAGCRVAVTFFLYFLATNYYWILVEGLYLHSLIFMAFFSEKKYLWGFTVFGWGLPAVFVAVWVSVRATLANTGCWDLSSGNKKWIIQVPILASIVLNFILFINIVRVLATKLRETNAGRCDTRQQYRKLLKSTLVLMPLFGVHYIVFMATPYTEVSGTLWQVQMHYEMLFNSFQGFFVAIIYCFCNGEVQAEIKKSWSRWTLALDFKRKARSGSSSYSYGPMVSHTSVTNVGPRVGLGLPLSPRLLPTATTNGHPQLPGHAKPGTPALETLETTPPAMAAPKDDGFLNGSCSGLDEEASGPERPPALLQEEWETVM
From the text: Experimental data were produced in singleton and curves were fitted using the four-parameter logistic non-linear regression model (GraphPad Prism 9). Data are expressed as uBRET.

[11] = 0.2 mg/kg, individual animals, FigS11b

## CCCCCCC(C)(C)c1ccc([C@@H]2C[C@H](O)CC[C@H]2CCCO)c(O)c1 [CP55940]
[1]; Time 1 min
  Brain, Mean: 0
  CSF, Mean: 0
  Plasma, Mean: 0
[1]; Time 5 min
  Brain, Mean: 0
  CSF, Mean: 0
  Plasma, Mean: 21.5
[1]; Time 15 min
  Brain, Mean: 11.5
  CSF, Mean: 0
  Plasma, Mean: 47.5
[1]; Time 30 min
  Brain, Mean: 19.2
  CSF, Mean: 0
  Plasma, Mean: 48.4
[1]; Time 60 min
  Brain, Mean: 17.1
  CSF, Mean: 0
  Plasma, Mean: 26.7
[1]; Time 120 min
  Brain, Mean: 11.9
  CSF, Mean: 0
  Plasma, Mean: 10.6
[1]; Time 240 min
  Brain, Mean: 3.09
  CSF, Mean: 0
  Plasma, Mean: 2.6
[1]; Time 360 min
  Brain, Mean: 0
  CSF, Mean: 0
  Plasma, Mean: 0
[1]; Time 480 min
  Brain, Mean: 0
  CSF, Mean: 0
  Plasma, Mean: 0
[1]; Time […]
  Brain, Mean: 0
  CSF, Mean: 0
  Plasma, Mean: 0

## CCCCCCC(C)(C)c1ccc([C@@H]2C[C@H](O)CC[C@H]2CCCO)c(O)c1 [CP-55,940, reference compound]
Mice [2]; [11]
  Jump: 18 and 0 (2×) and 4 (2×)
  Paw lick: 0 (4×) and 10
  Paw shake: 0 (2×) and 6 and 12 and 8
  Paw withdrawal: 18 and 34 and 32 and 36 and 64
Mice [2]; Dose 0.2 mg/kg
  hot plate response normalised to baseline (Figure4b), individual animals: 98.1 and 121.1 and 123.4 and 122.6 and 97.5
Mice [2]; Dose 0.5 mg/kg
  hot plate response normalised to baseline (Figure4b), individual animals: 256.6 and 226.6 and 210.5 and 222.4 and 213.7
Mice [2]; i.p., 30 min after injection
  lowest dose with significantly increased hot plate latency: 0.5 mg/kg
Mice [3]; i.p., 30 min after injection
  lowest dose with significantly increased latency, Hargreaves: 0.2 mg/kg
Mice [4]; Dose 0.1 mg/kg
  rotarod performance (Figure6b), individual animals: 284 and 282 and 285 and 300
Mice [4]; Dose 0.2 mg/kg
  rotarod performance (Figure6b), individual animals: 261 and 257 and 210 and 300 and 91 and 161 and 258 and 208 and 236 and 275
Mice [4]; Dose 1.0 mg/kg
  rotarod performance (Figure6b), individual animals: 200 and 204 and 173 and 236 and 203
Mice [4]; rotarod and open field
  motor impairment at analgesic doses: caused motor impairment in both the rotarod and open field tests
Mice [5]; 0.5 mg/kg
  Individual animal scores (FigS11e): -18 and -21 and -54 and 119 and -213 and 8 and -326 and -238
Mice [5]
  conditioned place preference: may actually induce some aversion
Mice [6]; Dose 0.2 mg/kg
  acetone test response after spared nerve injury (Figure5b), individual animals: 36 and 40 and 48 and 76
Mice [6]; spared nerve injury, i.p.
  effect on acetone-induced nocifensive behaviors: strongly reduced spared nerve injury-induced cold allodynia
Mice [7]; 0.2 mg/kg dose
  catalepsy (Figure6c), individual animals: 17 and 15 and 13 and 3 and 5
Mice [7]; 0.5 mg/kg dose
  catalepsy (Figure6c), individual animals: 6.8 and 5 (2×) and 30 and 5.6 and 4 and 2 (2×) and 7 and 8.5
Mice [7]; 1 mg/kg dose
  catalepsy (Figure6c), individual animals: 15.3 and 23.3 and 17.7 and 28 and 15.7
Mice [7]; i.p.
  dose at which catalepsy starts: 0.2 mg/kg
Mice [8]; Figure 6e, vs rotarod
  therapeutic window, Acetone: 1
  therapeutic window, Hot Plate: 0.4
  therapeutic window, Tail Flick: 0.4
Mice [8]; Figure 6f
  therapeutic window, analgesia vs catalepsy: no window between analgesia and catalepsy
Mice [8]; Figure 6d, vs open field
  therapeutic window, Acetone: 1
  therapeutic window, Hot Plate: 0.4
  therapeutic window, Tail Flick: 0.4
[1]; 0.2 mg/kg i.p., CD-1 mice
  brain Cmax: 19.2 ng/g
  brain T1/2: 127 min

## CCCCCCC(C)(C)c1ccc([C@@H]2C[C@H](O)CC[C@H]2CCCO)c(O)c1 [CP-55940]
Mice [3]; Dose 0.2 mg/kg, test not printed on the sheet
  Dose response, individual animals (FigS11a): 256.9 and 109.7 and 71.66 and 121.4 and 287.7

## CC(C)[N+](C)(CCOC(=O)C1c2ccccc2Oc2ccccc21)C(C)C [Propantheline, reference compound]
In vitro
  half-life at 1 µM: 28 min
  remaining at 20 min, 1 µM: 75%
  remaining at 40 min, 1 µM: 50%
  remaining at 1 h, 1 µM: 31%
  remaining at 2 h, 1 µM: 6%

## O=C(CCCN1CCC(O)(c2ccc(Cl)cc2)CC1)c1ccc(F)cc1 [haloperidol, reference compound]
Mice [7]; 1 mg/kg dose
  catalepsy (Figure6c), individual animals: 21 and 17 and 11.5 and 18 and 14
Mice [7]; i.p., ‘1350 at 0.2 or 0.5 mg/kg, haloperidol 1.0 mg/kg
  catalepsy, latency to move all four paws: induced catalepsy

## CN1CC[C@]23c4c5ccc(O)c4O[C@H]2[C@@H](O)C=C[C@H]3[C@H]1C5 [morphine, reference compound]
Mice [9]; CB1R KO mice
  analgesic response normalised to baseline, WT vs CB1R KO (Figure5d), individual animals: 186.205 and 193.839 and 225.055 and 193.021 and 200.382
Mice [9]; Morphine 3 mg/kg, individual animals, sheet Figure7b, test not given
  Response relative to baseline (baseline about 100): 153.4 and 95 and 153.1 and 101.6 and 124.1 and 132.6 and 140.4 and 96.4 and 125 and 194 and 137 and 131 and 126 and 149.7 and 136.2
Mice [9]; WT mice
  analgesic response normalised to baseline, WT vs CB1R KO (Figure5d), individual animals: 138.803 and 169.174 and 209.668 and 177.834 and 174.541
Mice [5]; 20 mg/kg
  Individual animal scores (FigS11e): 125 and 92 and 189 and -5 and 874 and 419 and 158 and 182
Mice [5]
  conditioned place preference: significantly increased their preference

## PTH
[10]; M -6.22186
  PTH control response: 5622
[10]; M -6.53946
  PTH control response: 5653
[10]; M -6.85696
  PTH control response: 5394
[10]; M -7.17551
  PTH control response: 5221
[10]; M -7.49499
  PTH control response: 5149
[10]; M -7.80694
  PTH control response: 5011
[10]; M -8.11922
  PTH control response: 4856
[10]; M -8.44613
  PTH control response: 4893
[10]; M -8.76448
  PTH control response: 5167
[10]; M -9.07573
  PTH control response: 5440
[10]; M -9.22186
  PTH control response: 6053
[10]; M -9.39794
  PTH control response: 5806
[10]; M -9.68787
  PTH control response: 6475
[10]; M -10.1552
  PTH control response: 7581
[10]; M -10.6199
  PTH control response: 8362
[10]; M -11.0969
  PTH control response: 9720
[10]; M -11.5529
  PTH control response: 9963
[10]; M -12.0177
  PTH control response: 10394
[10]; M -12.4948
  PTH control response: 10587
[10]; M -12.9208
  PTH control response: 10667
[10]; M -13.3979
  PTH control response: 10336
[10]; M -13.8861
  PTH control response: 10932
[10]; M -14
  PTH control response: 11358 and 10843

From article PMC11882969 (Nature Communications, 2025)
